Read-outs that look alike come from different tables or passages of the source.
Columns and labels:
Experiment in all cases: biochemical
Design in all cases: KINOMEscan scanMAX competition binding, DNA-tagged kinases, qPCR read-out, percent control at 300 nM
DYRK1B = DYRK1B (Homo sapiens, UniProt Q9Y463)
EPHA4 = EPHA4 (Homo sapiens, UniProt P54764)
FRK = FRK (Homo sapiens, UniProt P42685)
ZAK = target: T1, ZAK (Homo sapiens, UniProt Q9NYL2)
T1 construct: gene MAP3K20

AURKA = target: T2, AURKA (Homo sapiens, UniProt O14965)
T2 sequence (O14965 1-403): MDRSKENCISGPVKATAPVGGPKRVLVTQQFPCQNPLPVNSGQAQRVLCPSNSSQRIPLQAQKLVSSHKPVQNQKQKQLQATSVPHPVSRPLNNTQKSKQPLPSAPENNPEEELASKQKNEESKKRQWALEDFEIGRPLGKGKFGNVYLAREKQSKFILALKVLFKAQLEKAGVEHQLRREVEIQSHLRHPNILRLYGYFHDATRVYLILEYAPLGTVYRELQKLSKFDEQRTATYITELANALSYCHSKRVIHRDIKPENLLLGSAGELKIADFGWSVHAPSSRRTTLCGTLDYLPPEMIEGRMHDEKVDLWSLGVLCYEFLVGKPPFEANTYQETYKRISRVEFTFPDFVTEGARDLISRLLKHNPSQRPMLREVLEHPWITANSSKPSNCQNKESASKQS

MEK5 = target: T3, MEK5 (Homo sapiens, UniProt Q13163)
T3 construct: gene MAP2K5
T3 sequence (Q13163 1-448): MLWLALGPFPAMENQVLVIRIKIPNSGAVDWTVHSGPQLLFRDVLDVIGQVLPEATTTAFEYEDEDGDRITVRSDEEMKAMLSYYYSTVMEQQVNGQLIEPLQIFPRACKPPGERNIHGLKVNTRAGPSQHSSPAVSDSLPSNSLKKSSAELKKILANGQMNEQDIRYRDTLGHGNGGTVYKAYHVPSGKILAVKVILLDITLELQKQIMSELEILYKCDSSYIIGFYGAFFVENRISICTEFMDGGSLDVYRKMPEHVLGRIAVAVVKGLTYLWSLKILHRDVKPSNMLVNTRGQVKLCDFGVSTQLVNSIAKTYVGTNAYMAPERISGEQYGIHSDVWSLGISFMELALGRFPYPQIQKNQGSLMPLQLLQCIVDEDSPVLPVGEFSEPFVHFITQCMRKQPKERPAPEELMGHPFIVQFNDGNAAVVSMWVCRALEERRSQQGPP

YANK2 = target: T4, YANK2 (Homo sapiens, UniProt Q9NY57)
T4 construct: gene STK32B
T4 sequence (Q9NY57 whole entry): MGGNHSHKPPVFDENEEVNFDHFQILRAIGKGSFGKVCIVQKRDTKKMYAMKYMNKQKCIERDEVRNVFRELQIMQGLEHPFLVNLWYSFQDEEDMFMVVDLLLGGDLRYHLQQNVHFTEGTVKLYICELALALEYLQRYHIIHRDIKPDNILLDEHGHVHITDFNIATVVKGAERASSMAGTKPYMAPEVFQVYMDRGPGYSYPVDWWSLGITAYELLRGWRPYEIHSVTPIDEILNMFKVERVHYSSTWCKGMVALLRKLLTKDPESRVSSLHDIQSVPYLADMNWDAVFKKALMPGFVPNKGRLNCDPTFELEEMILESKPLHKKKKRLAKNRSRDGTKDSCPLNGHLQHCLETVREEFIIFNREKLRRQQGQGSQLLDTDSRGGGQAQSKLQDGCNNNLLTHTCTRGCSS

TNIK = TNIK (Homo sapiens, UniProt Q9UKE5)
TNIK, sequence (Q9UKE5 whole entry): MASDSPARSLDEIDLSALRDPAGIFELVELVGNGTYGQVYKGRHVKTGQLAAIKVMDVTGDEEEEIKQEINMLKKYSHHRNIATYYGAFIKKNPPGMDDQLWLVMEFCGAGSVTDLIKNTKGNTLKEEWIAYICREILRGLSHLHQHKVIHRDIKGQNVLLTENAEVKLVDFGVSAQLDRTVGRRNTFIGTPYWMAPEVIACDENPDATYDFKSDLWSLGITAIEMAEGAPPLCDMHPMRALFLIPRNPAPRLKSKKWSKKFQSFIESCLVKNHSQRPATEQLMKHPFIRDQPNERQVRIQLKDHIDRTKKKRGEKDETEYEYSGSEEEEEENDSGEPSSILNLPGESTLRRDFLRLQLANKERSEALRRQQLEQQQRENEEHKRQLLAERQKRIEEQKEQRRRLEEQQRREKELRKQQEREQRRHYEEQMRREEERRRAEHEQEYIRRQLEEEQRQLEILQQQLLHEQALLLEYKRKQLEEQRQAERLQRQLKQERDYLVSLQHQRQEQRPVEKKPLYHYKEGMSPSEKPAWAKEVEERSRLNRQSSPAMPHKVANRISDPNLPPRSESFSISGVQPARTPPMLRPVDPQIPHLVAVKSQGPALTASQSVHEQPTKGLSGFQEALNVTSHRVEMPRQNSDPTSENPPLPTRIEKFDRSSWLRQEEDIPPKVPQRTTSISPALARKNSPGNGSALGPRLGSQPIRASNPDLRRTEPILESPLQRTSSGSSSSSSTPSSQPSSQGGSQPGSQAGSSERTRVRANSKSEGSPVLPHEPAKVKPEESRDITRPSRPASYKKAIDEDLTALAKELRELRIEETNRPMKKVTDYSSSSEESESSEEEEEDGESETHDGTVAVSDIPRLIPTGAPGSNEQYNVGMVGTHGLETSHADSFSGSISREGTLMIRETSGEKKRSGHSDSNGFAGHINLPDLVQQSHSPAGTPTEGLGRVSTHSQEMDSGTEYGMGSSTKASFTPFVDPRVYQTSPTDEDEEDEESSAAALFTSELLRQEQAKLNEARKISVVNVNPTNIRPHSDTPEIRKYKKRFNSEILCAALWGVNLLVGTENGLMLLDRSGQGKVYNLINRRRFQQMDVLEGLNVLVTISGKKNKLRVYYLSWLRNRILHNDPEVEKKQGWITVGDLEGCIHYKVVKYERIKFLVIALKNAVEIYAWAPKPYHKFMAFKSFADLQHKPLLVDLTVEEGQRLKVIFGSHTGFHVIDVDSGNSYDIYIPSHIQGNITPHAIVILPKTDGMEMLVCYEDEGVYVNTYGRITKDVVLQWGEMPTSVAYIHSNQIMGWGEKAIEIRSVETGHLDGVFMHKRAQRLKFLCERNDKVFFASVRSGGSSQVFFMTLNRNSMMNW

[1] = target: T5, RSK4(Kin.Dom.2-C-terminal) (Homo sapiens, UniProt Q9UK32)
T5 construct: gene RPS6KA6; Kin.Dom.2-C-terminal
T5 sequence (Q9UK32 whole entry): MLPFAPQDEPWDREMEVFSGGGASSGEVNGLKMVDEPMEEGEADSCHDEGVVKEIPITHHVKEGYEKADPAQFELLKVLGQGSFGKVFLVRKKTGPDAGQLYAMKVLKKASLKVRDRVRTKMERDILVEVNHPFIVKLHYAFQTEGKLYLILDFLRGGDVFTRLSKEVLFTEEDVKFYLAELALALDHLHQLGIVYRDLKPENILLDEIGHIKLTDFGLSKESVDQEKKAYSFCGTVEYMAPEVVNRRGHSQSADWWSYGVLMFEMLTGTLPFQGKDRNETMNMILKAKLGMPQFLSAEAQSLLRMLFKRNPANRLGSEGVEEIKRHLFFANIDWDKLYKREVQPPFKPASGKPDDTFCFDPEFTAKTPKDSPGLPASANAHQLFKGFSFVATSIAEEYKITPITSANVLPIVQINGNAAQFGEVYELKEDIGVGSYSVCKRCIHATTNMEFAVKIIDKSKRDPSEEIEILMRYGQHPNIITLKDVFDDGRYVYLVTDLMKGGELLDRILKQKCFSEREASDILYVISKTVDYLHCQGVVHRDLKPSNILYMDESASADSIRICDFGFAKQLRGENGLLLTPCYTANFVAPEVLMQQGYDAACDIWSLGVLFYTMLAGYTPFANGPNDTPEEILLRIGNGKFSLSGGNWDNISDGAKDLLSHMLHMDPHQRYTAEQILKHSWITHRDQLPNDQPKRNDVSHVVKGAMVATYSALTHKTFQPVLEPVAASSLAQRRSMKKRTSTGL

ABL2 = ABL2 (Homo sapiens, UniProt P42684)
PHKG2 = target: T6, PHKG2 (Homo sapiens, UniProt P15735)
T6 sequence (P15735 1-406): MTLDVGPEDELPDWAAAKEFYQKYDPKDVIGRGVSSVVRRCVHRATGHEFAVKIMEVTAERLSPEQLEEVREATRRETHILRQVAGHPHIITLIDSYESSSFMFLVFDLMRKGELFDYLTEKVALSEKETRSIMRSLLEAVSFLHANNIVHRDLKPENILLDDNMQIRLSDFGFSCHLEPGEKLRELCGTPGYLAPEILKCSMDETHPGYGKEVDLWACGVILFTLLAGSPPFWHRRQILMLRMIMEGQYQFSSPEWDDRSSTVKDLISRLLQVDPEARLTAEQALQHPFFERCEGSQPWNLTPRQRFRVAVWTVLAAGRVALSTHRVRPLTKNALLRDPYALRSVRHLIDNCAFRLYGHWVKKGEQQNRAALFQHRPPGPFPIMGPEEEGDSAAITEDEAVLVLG

[2] = read-out: Percent control / Acalabrutinib
[3] = read-out: Percent control / Ibrutinib
[4] = read-out: Percent control / Tirabrutinib
[5] = read-out: Percent control / Zanubrutinib

DYRK1B, sequence (Q9Y463 whole entry): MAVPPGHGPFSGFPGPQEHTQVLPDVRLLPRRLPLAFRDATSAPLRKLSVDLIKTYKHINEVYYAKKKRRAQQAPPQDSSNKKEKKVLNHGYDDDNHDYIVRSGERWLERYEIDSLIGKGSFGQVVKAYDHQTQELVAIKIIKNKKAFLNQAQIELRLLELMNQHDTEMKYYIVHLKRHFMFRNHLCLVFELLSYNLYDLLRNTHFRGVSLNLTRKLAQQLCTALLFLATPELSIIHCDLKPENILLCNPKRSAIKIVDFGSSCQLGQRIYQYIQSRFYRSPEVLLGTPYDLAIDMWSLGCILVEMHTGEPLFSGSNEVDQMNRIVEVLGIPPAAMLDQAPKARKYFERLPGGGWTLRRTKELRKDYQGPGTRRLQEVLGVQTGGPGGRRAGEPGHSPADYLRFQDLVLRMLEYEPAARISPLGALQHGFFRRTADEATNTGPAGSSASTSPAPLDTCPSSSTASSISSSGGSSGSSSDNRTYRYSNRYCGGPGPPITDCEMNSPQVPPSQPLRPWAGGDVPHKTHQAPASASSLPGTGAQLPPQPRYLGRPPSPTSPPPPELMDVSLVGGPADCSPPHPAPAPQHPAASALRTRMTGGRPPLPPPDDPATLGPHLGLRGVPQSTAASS
FRK, sequence (P42685 whole entry): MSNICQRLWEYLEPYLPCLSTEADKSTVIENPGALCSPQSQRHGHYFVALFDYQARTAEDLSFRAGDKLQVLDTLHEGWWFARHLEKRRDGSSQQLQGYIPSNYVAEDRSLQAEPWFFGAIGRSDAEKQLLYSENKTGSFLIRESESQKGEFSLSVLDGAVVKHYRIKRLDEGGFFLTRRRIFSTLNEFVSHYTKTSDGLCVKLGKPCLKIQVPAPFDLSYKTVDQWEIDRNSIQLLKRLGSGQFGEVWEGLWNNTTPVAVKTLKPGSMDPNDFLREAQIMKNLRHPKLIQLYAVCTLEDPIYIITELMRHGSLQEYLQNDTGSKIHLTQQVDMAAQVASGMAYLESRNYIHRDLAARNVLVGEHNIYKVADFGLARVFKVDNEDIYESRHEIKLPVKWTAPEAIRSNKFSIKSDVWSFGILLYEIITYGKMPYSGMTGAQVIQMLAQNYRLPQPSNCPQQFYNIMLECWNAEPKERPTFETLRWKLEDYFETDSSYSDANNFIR
EPHA4, sequence (P54764 whole entry): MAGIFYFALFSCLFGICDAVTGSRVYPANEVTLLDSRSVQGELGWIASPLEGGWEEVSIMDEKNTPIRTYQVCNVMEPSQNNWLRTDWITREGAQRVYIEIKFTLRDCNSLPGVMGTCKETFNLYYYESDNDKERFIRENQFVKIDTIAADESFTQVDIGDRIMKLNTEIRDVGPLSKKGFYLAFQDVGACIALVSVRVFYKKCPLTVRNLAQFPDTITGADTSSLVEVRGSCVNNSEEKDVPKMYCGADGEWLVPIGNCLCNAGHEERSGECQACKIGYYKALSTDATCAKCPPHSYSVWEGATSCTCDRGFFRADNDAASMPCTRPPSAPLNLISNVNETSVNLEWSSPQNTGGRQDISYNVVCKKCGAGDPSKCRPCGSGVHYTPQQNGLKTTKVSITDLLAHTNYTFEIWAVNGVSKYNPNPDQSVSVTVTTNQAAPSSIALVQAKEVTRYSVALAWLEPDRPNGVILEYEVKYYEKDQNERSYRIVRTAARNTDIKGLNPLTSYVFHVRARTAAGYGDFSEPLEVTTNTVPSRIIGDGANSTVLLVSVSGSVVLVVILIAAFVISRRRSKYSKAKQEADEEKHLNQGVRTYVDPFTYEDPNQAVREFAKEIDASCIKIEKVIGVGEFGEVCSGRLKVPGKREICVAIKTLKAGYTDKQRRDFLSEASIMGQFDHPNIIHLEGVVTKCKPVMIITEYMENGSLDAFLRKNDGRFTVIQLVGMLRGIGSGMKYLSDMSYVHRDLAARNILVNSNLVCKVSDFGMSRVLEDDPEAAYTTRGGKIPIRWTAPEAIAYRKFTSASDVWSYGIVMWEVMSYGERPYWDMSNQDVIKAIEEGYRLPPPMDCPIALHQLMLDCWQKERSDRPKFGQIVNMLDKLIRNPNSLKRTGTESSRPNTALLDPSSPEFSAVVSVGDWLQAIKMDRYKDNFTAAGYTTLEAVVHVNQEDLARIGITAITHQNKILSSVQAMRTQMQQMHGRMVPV

## CC#CC(=O)N1CCC[C@H]1c1nc(-c2ccc(C(=O)Nc3ccccn3)cc2)c2c(N)nccn12 [Acalabrutinib]
DYRK1B; [2]
  remaining binding at 0.3 µM: 72%
EPHA4; [2]
  remaining binding at 0.3 µM: 96%
FRK; [2]
  remaining binding at 0.3 µM: 79%
ZAK; [2]
  remaining binding at 0.3 µM: 83%
AURKA; [2]
  remaining binding at 0.3 µM: 96%
MEK5; [2]
  remaining binding at 0.3 µM: 71%
YANK2; [2]
  remaining binding at 0.3 µM: 89%
TNIK; [2]
  remaining binding at 0.3 µM: 79%
[1]; [2]
  remaining binding at 0.3 µM: 95%
ABL2; [2]
  remaining binding at 0.3 µM: 97%

## C=CC(=O)N1CCC[C@@H](n2nc(-c3ccc(Oc4ccccc4)cc3)c3c(N)ncnc32)C1 [Ibrutinib]
PHKG2; [3]
  remaining binding at 0.3 µM: 81%
EPHA4; [3]
  remaining binding at 0.3 µM: 82%
FRK; [3]
  remaining binding at 0.3 µM: 32%
ZAK; [3]
  remaining binding at 0.3 µM: 70%
AURKA; [3]
  remaining binding at 0.3 µM: 94%
MEK5; [3]
  remaining binding at 0.3 µM: 0.6%
YANK2; [3]
  remaining binding at 0.3 µM: 76%
TNIK; [3]
  remaining binding at 0.3 µM: 86%
ABL2; [3]
  remaining binding at 0.3 µM: 82%

## CC#CC(=O)N1CC[C@@H](n2c(=O)n(-c3ccc(Oc4ccccc4)cc3)c3c(N)ncnc32)C1 [Tirabrutinib]
DYRK1B; [4]
  remaining binding at 0.3 µM: 70%
PHKG2; [4]
  remaining binding at 0.3 µM: 93%
EPHA4; [4]
  remaining binding at 0.3 µM: 94%
MEK5; [4]
  remaining binding at 0.3 µM: 41%
YANK2; [4]
  remaining binding at 0.3 µM: 87%
TNIK; [4]
  remaining binding at 0.3 µM: 92%
[1]; [4]
  remaining binding at 0.3 µM: 93%

## C=CC(=O)N1CCC([C@@H]2CCNc3c(C(N)=O)c(-c4ccc(Oc5ccccc5)cc4)nn32)CC1 [Zanubrutinib]
DYRK1B; [5]
  remaining binding at 0.3 µM: 71%
PHKG2; [5]
  remaining binding at 0.3 µM: 92%
FRK; [5]
  remaining binding at 0.3 µM: 42%
ZAK; [5]
  remaining binding at 0.3 µM: 62%
AURKA; [5]
  remaining binding at 0.3 µM: 92%
YANK2; [5]
  remaining binding at 0.3 µM: 96%
TNIK; [5]
  remaining binding at 0.3 µM: 85%
[1]; [5]
  remaining binding at 0.3 µM: 82%
ABL2; [5]
  remaining binding at 0.3 µM: 77%

— publication PMC10004634 (PLOS ONE, 2023)
